The record followed here is patent US9902739B2, “Small molecule inhibitors of G protein coupled receptor 6 kinases polypeptides” (Mayo Foundation for Medical Education and Research, priority 2014, dated 2018).

T1 sequence (P43250 whole entry): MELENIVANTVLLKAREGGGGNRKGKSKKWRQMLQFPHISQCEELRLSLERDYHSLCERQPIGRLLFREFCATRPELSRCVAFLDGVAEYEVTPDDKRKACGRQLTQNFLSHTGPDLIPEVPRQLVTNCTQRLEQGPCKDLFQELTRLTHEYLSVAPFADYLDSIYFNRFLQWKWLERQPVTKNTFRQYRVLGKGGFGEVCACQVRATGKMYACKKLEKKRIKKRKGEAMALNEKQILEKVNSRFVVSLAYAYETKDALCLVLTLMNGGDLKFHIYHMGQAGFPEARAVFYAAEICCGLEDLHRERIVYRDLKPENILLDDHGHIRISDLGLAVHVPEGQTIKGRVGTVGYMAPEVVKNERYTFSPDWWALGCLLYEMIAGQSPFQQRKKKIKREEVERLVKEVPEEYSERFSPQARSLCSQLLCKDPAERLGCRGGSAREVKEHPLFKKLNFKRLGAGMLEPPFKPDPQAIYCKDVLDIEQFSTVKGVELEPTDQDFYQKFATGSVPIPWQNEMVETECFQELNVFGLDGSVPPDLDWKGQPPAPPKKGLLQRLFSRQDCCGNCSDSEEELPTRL

The first test concerns the target T1, GRK6, recombinant full-length GST-tagged human protein (Homo sapiens, UniProt P43250).
T1 construct: Enzyme: 20 nM GRK6, recombinant full-length GST-tagged human protein; GST
The test can be described thus: GRK6 assay, IC50 determination (8-point concentration-response). In kind it is biochemical. The conditions noted are these: Series 3 (Table 13); conditions as Example 18. The method in brief: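 Full-length GST-tagged human GRK6 (20 nM) with 1 μM Peptide 216 in 50 mM TRIS-HCl pH 7.5, 5 mM MgCl2, 2 mM DTT, 0.01% Triton X-100, 1% DMSO. IC50 from 8-point singlicate concentration-response, top 60 μM, 3-fold steps; compounds inhibiting >50% at all concentrations retested at lower range.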
For the compound `N#Cc1ccc(-c2ccc(-c3nnc(SCc4nnn[nH]4)[nH]3)o2)cc1` [Compound 3-33], the IC50 was 8.91 µM.

Turning to `CN(C)S(=O)(=O)c1cccc(-c2ccc(-c3nnc(SCc4nnn[nH]4)[nH]3)o2)c1` [Compound 3-34], the IC50 worked out at 9.09 µM.

As for `Cc1cccc(-c2nnc(SCc3nnn[nH]3)[nH]2)c1` [Compound 3-35, 5-(((5-(m-tolyl)-1H-1,2,4-triazol-3-yl)thio)methyl)-1H-tetrazole], the IC50 amounted to 16.9 µM.

For `O=[N+]([O-])c1cc(-c2ccccc2)cc(-c2nnc(SCc3nnn[nH]3)[nH]2)c1` [Compound 3-36], the IC50 came to 9.05 µM.

Still in this test, the particulars now being: Series 4 (Table 14); conditions as Example 18.
With `O=C(O)CSc1nnc(-c2ccc(-c3cc(Cl)cc(Cl)c3)s2)[nH]1` [Compound 4-1], the IC50 came to 0.595 µM.

With `O=C(O)CSc1nnc(-c2cnc3cc(OCc4ccccc4)ccc3c2)[nH]1` [Compound 4-2], the IC50 was found to be 0.78 µM.

As to `O=C(O)CSc1nnc(-c2cnn(-c3ccccc3)c2)[nH]1` [Compound 4-3], the half-inhibitory concentration (IC50) was 1.01 µM.

Turning to `O=C(O)CSc1nnc(-c2cnc3ccccc3c2)[nH]1` [Compound 4-4], the IC50 turned out to be 1.12 µM.

For the compound `O=C(O)CSc1nnc(-c2ccc(-c3ccccc3)s2)[nH]1` [Compound 4-5], the IC50 is 1.27 µM.

Regarding `O=C(O)CSc1nnc(-c2cnn(-c3cccc(Cl)c3)c2)[nH]1` [Compound 4-6, 2-((5-(1-(3-chlorophenyl)-1H-pyrazol-4-yl)-4H-1,2,4-triazol-3-yl)thio)acetic acid], the IC50 is 2.01 µM.

In the case of `O=C(O)CSc1nnc(-c2csc3ccccc23)[nH]1` [Compound 4-7], the IC50 stood at 2.56 µM.

On to `O=C(O)CSc1nnc(-c2cc3ccccc3s2)[nH]1` [Compound 4-8], for which the IC50 amounted to 2.58 µM.

For the compound `Cc1ccc2sc(-c3nnc(SCC(=O)O)[nH]3)cc2c1` [Compound 4-9], the IC50 was 2.61 µM.

Turning to `O=C(O)CSc1nnc(-c2ccc(-c3ccc4ccccc4c3)s2)[nH]1` [Compound 4-10], the IC50 was found to be 2.98 µM.

Turning to `O=C(O)CSc1nnc(-c2cnc(-c3ccccc3)s2)[nH]1` [Compound 4-11], the half-inhibitory concentration (IC50) was 3.64 µM.

For `O=C(O)CSc1nnc(-c2cncc(Br)c2)[nH]1` [Compound 4-12], the IC50 came out at 4.11 µM.

In the case of `Nc1ncc(-c2nnc(SCC(=O)O)[nH]2)s1` [Compound 4-13], the IC50 is 4.64 µM.

Regarding `Cn1ncc(-c2nnc(SCC(=O)O)[nH]2)c1-c1ccccc1` [Compound 4-14], the IC50 came to 5.7 µM.

For `O=C(O)CSc1nnc(-c2c[nH]nc2-c2ccccc2)[nH]1` [Compound 4-15], the IC50 was determined as 6.29 µM.

`O=C(O)CSc1nnc(-c2ccc(-c3ccccn3)s2)[nH]1` [Compound 4-16]: the IC50 was 6.54 µM.

Regarding `CN(C)c1ncc(-c2nnc(SCC(=O)O)[nH]2)cn1` [Compound 4-17], the IC50 is 7.1 µM.

As for `Cn1nc(C(F)(F)F)cc1-c1ccc(-c2nnc(SCC(=O)O)[nH]2)s1` [Compound 4-18], the IC50 turned out to be 7.41 µM.

Turning to `CCc1n[nH]cc1-c1nnc(SCC(=O)O)[nH]1` [Compound 4-19], the IC50 came to 8.96 µM.

`O=C(O)CSc1nnc(-c2ccc(Oc3ccccc3)nc2)[nH]1` [Compound 4-20]: the IC50 stood at 9.21 µM.

For `Nc1ncc(-c2nnc(SCC(=O)O)[nH]2)cn1` [Compound 4-21], the IC50 is 9.61 µM.

Regarding `O=C(O)CSc1nnc(-c2ccc(N3CCOCC3)nc2)[nH]1` [Compound 4-22], the IC50 worked out at 11.3 µM.

Take `O=C(O)CSc1nnc(-c2[nH]ncc2Br)[nH]1` [Compound 4-23]: the IC50 worked out at 12.3 µM.

In the case of `COc1cncc(-c2nnc(SCC(=O)O)[nH]2)c1` [Compound 4-24], the IC50 was found to be 12.9 µM.

Consider `O=C(O)CSc1nnc(-c2ccc3ccccc3n2)[nH]1` [Compound 4-25], for which the IC50 came to 13 µM.

For the compound `COc1ccc(-c2nnc(SCC(=O)O)[nH]2)cn1` [Compound 4-26], the IC50 amounted to 13 µM.

Turning to `COc1ccc2c(-c3nnc(SCC(=O)O)[nH]3)c[nH]c2c1` [Compound 4-27], the IC50 worked out at 20.7 µM.

`O=C(O)CSc1nnc(-c2csnn2)[nH]1` [Compound 4-28]: the IC50 was determined as 22.3 µM.
